Measured values from EP2951180B1, “2,6,7,8 SUBSTITUTED PURINES AS HDM2 INHIBITORS” (Merck Sharp & Dohme Corp., priority 2013, dated 2014).
Where two headings read alike, the source gives them in different places.

Biological target: T1, HDM2 (Homo sapiens, UniProt Q00987)
T1 construct: Thioredoxin (N); made in house; host or cells: E. coli strain BL21(DE3)Rosetta
Assay: HDM2 FRET assay (inhibition of binding of FITC labeled p53-pocket peptide to HDM2)
Settings: for IC50: read-out: FRET IC50; for inhibition at 1 µM: read-out: inh. at 1000 nM (FRET)
In short: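 Final: 0.5 nM His-HDM2, 3 nM FITC peptide, 0.25 nM Tb anti-His Ab; PBS, 0.01% BSA, 0.01% Tween-20; 0.1% DMSO.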

[1] = 0.5 nM HDM2 (residues 17 to 125), 3nM peptide, two hour incubation at room temperature

T1 sequence (Q00987 17-125): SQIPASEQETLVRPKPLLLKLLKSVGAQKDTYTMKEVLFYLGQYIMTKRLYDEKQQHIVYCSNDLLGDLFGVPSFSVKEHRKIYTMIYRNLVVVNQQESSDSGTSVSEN

C[C@@H](Nc1nc(-c2noc(=O)[nH]2)nc2nc(N3CCOC[C@@H]3c3ccccc3)n(C[C@H]3CC[C@H](C)CC3)c12)C1CCC1 [Example 11.67, 3-(6-{[(1R)-1-cyclobutylethyl]amino}-7-[(trans-4-methylcyclohexyl)methyl]-8-[(3S)-3-phenylmorpholin-4-yl]-7H-purin-2-yl)-1,2,4-oxadiazol-5(4H)-one]
IC50 (Table 11): 10.8 nM

CCOCC1CCCN1c1nc2nc(-c3noc(=O)[nH]3)nc(N[C@H](C)C3CCC3)c2n1C[C@H]1CC[C@H](C)CC1 (stereo partly drawn) [Example 11.32, 3-(6-{[(1R)-1-cyclobutylethyl]amino}-8-[2-(ethoxymethyl)pyrrolidin-1-yl]-7-[(trans-4-methylcyclohexyl)methyl]-7H-purin-2-yl)-1,2,4-oxadiazol-5(2H)-one]
IC50 (Table 11): 8 nM

C[C@@H](Nc1nc(C(=O)O)nc2nc(N3CCCc4ccccc43)n(Cc3ccc(C(F)(F)F)cc3)c12)C1CCC1 [Example 9.124, 6-{[(1R)-1-cyclobutylethyl]amino}-8-(3,4-dihydroquinolin-1(2H)-yl)-7-[4-(trifluoromethyl)benzyl]-7H-purine-2-carboxylic acid]
IC50 (Table 9): 10.4 nM

C[C@@H](Nc1nc(C(=O)O)nc2nc(N3CCCCC3c3ccc(F)cc3)n(Cc3ccc(C(F)(F)F)cc3)c12)C1CCC1 (stereo partly drawn) [Example 9.117, 6-{[(1R)-1-cyclobutylethyl]amino}-8-[2-(4-fluorophenyl)piperidin-1-yl]-7-[4-(trifluoromethyl)benzyl]-7H-purine-2-carboxylic acid]
IC50 (Table 9): 10.6 nM

C[C@@H](Nc1nc(-c2noc(=O)[nH]2)nc2nc(C(O)(c3ccccc3)C(F)(F)F)n(C[C@H]3CC[C@H](C)CC3)c12)C1CCC1 (single isomer, unassigned) [Example 22.28]
IC50 (Table 22): 27.3 nM

Cc1cccc(-c2nc3nc(C(=O)O)nc(N(C)C(C)C4CC4)c3n2Cc2ccc(Cl)cc2)c1 (stereo not drawn) [Example 6.11, 7-(4-chlorobenzyl)-6-[(1-cyclopropylethyl)(methyl)amino]-8-(3-methylphenyl)-7H-purine-2-carboxylic acid]
IC50 (Table 6): 1420 nM

C[C@@H](Nc1nc(-c2n[nH]c(=O)o2)nc2nc(N3CCO[C@H]4CCCC[C@H]43)n(C[C@H]3CC[C@H](C)CC3)c12)C1CCC1 (single isomer, unassigned) [Example 11.161]
IC50 (Table 11): 29.5 nM

CC1CCCCN1c1nc2nc(-c3noc(=O)[nH]3)nc(N[C@H](C)C3CCC3)c2n1Cc1ccc(C(F)(F)F)cc1 (stereo partly drawn) [Example 9.110, 3-(6-{[(1R)-1-cyclobutylethyl]amino}-8-(2-methylpiperidin-1-yl)-7-[4-(trifluoromethyl)benzyl]-7H-purin-2-yl)-1,2,4-oxadiazol-5(4H)-one]
IC50 (Table 9): 10.3 nM

C[C@@H]1COCCN1c1nc2nc(-c3n[nH]c(=O)o3)nc(-c3cncc(Cl)c3)c2n1C[C@H]1CC[C@H](C)CC1 [Example 16.11, 5-(6-(5-chloropyridin-3-yl)-7-(((trans)-4-methylcyclohexyl)methyl)-8-((R)-3-methylmorpholino)-7H-purin-2-yl)-1,3,4-oxadiazol-2(3H)-one]
IC50 [1]: 27.7 nM

C[C@@H](Nc1nc(-c2noc(=O)[nH]2)nc2nc(N3CCOCC3c3ccccc3Cl)n(C[C@H]3CC[C@H](C)CC3)c12)C1CCC1 (stereo partly drawn) [Example 11.100, 3-{8-[3-(2-chlorophenyl)morpholin-4-yl]-6-{[(1R)-1-cyclobutylethyl]amino}-7-[(trans-4-methylcyclohexyl)methyl]-7H-purin-2-yl}-1,2,4-oxadiazol-5(4H)-one]
IC50 (Table 11): 0.936 nM

COC[C@@H]1CC[C@@H](COC)N1c1nc2nc(-c3noc(=O)[nH]3)nc(-c3cccc(Cl)c3)c2n1C[C@H]1CC[C@H](C)CC1 [Example 16.149, 3-{8-[(2S,5S)-2,5-bis(methoxymethyl)pyrrolidin-1-yl]-6-(3-chlorophenyl)-7-[(trans-4-methylcyclohexyl)methyl]-7H-purin-2-yl}-1,2,4-oxadiazol-5(4H)-one]
IC50 [1]: 3.77 nM

CCC1CCN(c2nc(C(=O)O)nc3nc(-c4cccc(C)c4)n(Cc4ccc(C(F)(F)F)cc4)c23)C1 (stereo not drawn) [Example 6.1, 6-(3-ethylpyrrolidin-1-yl)-8-(3-methylphenyl)-7-[4-(trifluoromethyl)benzyl]-7H-purine-2-carboxylic acid]
inhibition at 1 µM: 41%

Cc1cccc(-c2nc(-c3noc(=O)[nH]3)nc3nc(N4CCOC[C@@H]4C)n(C[C@H]4CC[C@H](C)CC4)c23)c1 [Example 16.34, 3-{7-[(trans-4-methylcyclohexyl)methyl]-8-[(3S)-3-methylmorpholin-4-yl]-6-(3-methylphenyl)-7H-purin-2-yl}-1,2,4-oxadiazol-5(4H)-one]
IC50 [1]: 503 nM

COC(c1cscn1)c1nc2nc(-c3noc(=O)[nH]3)nc(N[C@H](C)C3CCC3)c2n1C[C@H]1CC[C@H](C)CC1 (stereo partly drawn) [Example 22.74, 3-(6-{[(1R)-1-cyclobutylethyl]amino}-8-[methoxy(1,3-thiazol-4-yl)methyl]-7-[(trans-4-methylcyclohexyl)methyl] -7H-purin-2-yl)-1,2,4-oxadiazol-5(4H)-one]
IC50 (Table 22): 2.63 nM

Cc1cccc(-c2nc3nc(C(=O)O)nc(NCC4CCC4)c3n2Cc2ccc(C(F)(F)F)cc2)c1 [Example 6.75, 6-[(cyclobutylmethyl)amino]-8-(3-methylphenyl)-7-[4-(trifluoromethyl)benzyl]-7H-purine-2-carboxylic acid]
IC50 (Table 6): 167 nM

C[C@@H](Nc1nc(C(C)(C)O)nc2nc(N3CCOC[C@H]3c3ccccc3)n(C[C@H]3CC[C@H](C)CC3)c12)C1CCC1 [Example 12.14, 2-(6-{[(1R)-1-cyclobutylethyl]amino}-7-[(trans-4-methylcyclohexyl)methyl]-8-[(3R)-3-phenylmorpholin-4-yl]-7H-purine-2-yl)propan-2-ol]
IC50 [1]: 107 nM

C[C@H]1CC[C@H](Cn2c(N3CCOC[C@H]3c3ccccc3)nc3nc(-c4noc(=O)[nH]4)nc(-c4cc(Cl)cc(CO)c4)c32)CC1 [Example 16.44, 3-{6-[3-chloro-5-(hydroxymethyl)phenyl]-7-[(trans-4-methylcyclohexyl)methyl]-8-[(3R)-3-phenylmorpholin-4-yl]-7H-purin-2-yl}-1,2,4-oxadiazol-5(4H)-one]
IC50 [1]: 0.205 nM

C[C@@H](Nc1nc(-c2noc(=O)[nH]2)nc2nc(N3CCOC[C@@H]3C)n(C[C@H]3CC[C@H](C)CC3)c12)C1CCC1 [Example 11.66, 3-(6-{[(1R)-1-cyclobutylethyl]amino}-7-[(trans-4-methylcyclohexyl)methyl]-8-[(3S)-3-methylmorpholin-4-yl]-7H-purin-2-yl)-1,2,4-oxadiazol-5(4H)-one]
IC50 (Table 11): 5.8 nM

Cc1cccc(-c2nc3nc(C(=O)O)nc(N[C@@H](C)C(C)(C)C)c3n2Cc2ccc(C(F)(F)F)cc2)c1 [Example 6.41, 8-(3-methylphenyl)-7-[4-(trifluoromethyl)benzyl]-6-{[(1S)-1,2,2-trimethylpropyl]amino}-7H-purine-2-carboxylic acid]
IC50 (Table 6): 638 nM

C[C@@H]1CN(C(=O)OC(C)(C)C)[C@@H](C)CN1c1nc2nc(-c3noc(=O)[nH]3)nc(N[C@H](C)C3CCC3)c2n1C[C@H]1CC[C@H](C)CC1 [Example 17.20, tert-butyl (2S,5R)-4-[6-{[(1R)-1-cyclobutylethyl]amino}-7-[(trans-4-methylcyclohexyl)methyl]-2-(5-oxo-4,5-dihydro-1,2,4-oxadiazol-3-yl)-7H-purin-8-yl]-2,5-dimethylpiperazine-1-carboxylate]
IC50 (Table 17.2): 14.7 nM

CC(Nc1nc2nc(-c3noc(=O)[nH]3)nc(N[C@H](C)C3CCC3)c2n1C[C@H]1CC[C@H](C)CC1)c1cncnc1 (stereo partly drawn) [Example 11.92, 3-(6-{[(1R)-1-cyclobutylethyl]amino}-7-[(trans-4-methylcyclohexyl)methyl]-8-[(1-pyrimidin-5-ylethyl)amino]-7H-purin-2-yl)-1,2,4-oxadiazol-5(2H)-one]
IC50 (Table 11): 11.7 nM

Cc1cccc(-c2nc3nc(C(=O)O)nc(N(C)CC(C)C)c3n2Cc2ccc(C(F)(F)F)cc2)c1 [Example 6.72, 6-[methyl(2-methylpropyl)amino]-8-(3-methylphenyl)-7-[4-(trifluoromethyl)benzyl]-7H-purine-2-carboxylic acid]
inhibition at 1 µM: 40%

CC([C@H]1CC[C@H](C)CC1)n1c(N2CCOC[C@H]2C)nc2nc(-c3noc(=O)[nH]3)nc(N[C@H](C)C3CCC3)c21 (single isomer, unassigned) [Example 18.12]
IC50 (Table 18): 2.82 nM

C[C@H]1CC[C@H](Cn2c(N3CCO[C@H]4CCC[C@@H]43)nc3nc(-c4noc(=O)[nH]4)nc(-c4cccc(Cl)c4)c32)CC1 [Example 16.81, 3-{6-(3-chlorophenyl)-8-[(4aS,7aS)-hexahydrocyclopenta [b][1,4]oxazin-4(4aH)-yl]-7-[(trans-4-methylcyclohexyl)methyl]-7H-purin-2-yl}-1,2,4-oxadiazol-5(4H)-one]
IC50 [1]: 105 nM

Cc1cccc(-c2nc3nc(C(=O)O)nc(NCC4CCCCC4)c3n2Cc2ccc(C(F)(F)F)cc2)c1 [Example 6.50, 6-[(cyclohexylmethyl)amino]-8-(3-methylphenyl)-7-[4-(trifluoromethyl)benzyl]-7H-purine-2-carboxylic acid]
IC50 (Table 6): 1370 nM

Cc1nc2nc(C(=O)O)nc(N[C@H](C)C3CCC3)c2n1C[C@H]1CC[C@H](C)CC1 [Example 21.9, 6-{[(1R)-1-cyclobutylethyl]amino}-8-methyl-7-[(trans-4-methylcyclohexyl)methyl]-7H-purine-2-carboxylic acid]
IC50 (Table 21): 101 nM

COc1ccc(C2CCCCN2c2nc3nc(C(=O)O)nc(N[C@H](C)C4CCC4)c3n2Cc2ccc(C(F)(F)F)cc2)cc1 (stereo partly drawn) [Example 9.70, 6-{[(1R)-1-cyclobutylethyl]amino}-8-[2-(4-methoxyphenyl)piperidin-1-yl]-7-[4-(trifluoromethyl)benzyl]-7H-purine-2-carboxylic acid]
IC50 (Table 9): 9.29 nM
